Experimental data: ChEMBL document CHEMBL3045033, “Synthesis of new potential anticancer agents based on 4-thiazolidinone and oleanane scaffolds” (Med Chem Res, 2012)
Several values for one entry are separate records, joined by “and”; a condition that tells them apart may be missing. Equal entries are not always repeated.

Assays:
Assay type in all cases: functional
U-251 [1] = assay: Cytotoxicity against Homo sapiens (human) U251 cells after 48 hr by SRB assay
OVCAR-4 = assay: Cytotoxicity against Homo sapiens (human) OVCAR4 cells at 10^-4 to 10^-8 M after 48 hr by SRB assay; settings: OVCAR-4, 48 h, read-out: pTGI (converted)
ACHN [2] = assay: Cytotoxicity against Homo sapiens (human) ACHN cells after 48 hr by SRB assay
NCI-H226 = assay: Cytotoxicity against Homo sapiens (human) NCI-H226 cells after 48 hr by SRB assay
[3] = Cytotoxicity against Homo sapiens (human) NCI-ADR-RES cells after 48 hr by SRB assay
HT-29 = assay: Cytotoxicity against Homo sapiens (human) HT-29 cells at 10^-4 to 10^-8 M after 48 hr by SRB assay; settings: HT-29, 48 h, read-out: pTGI (converted)
CCRF-CEM = assay: Cytotoxicity against Homo sapiens (human) CCRF-CEM cells at 10^-4 to 10^-8 M after 48 hr by SRB assay; settings: read-out: pTGI (converted)
SF-539 [4] = assay: Cytotoxicity against Homo sapiens (human) SF539 cells at 10^-4 to 10^-8 M after 48 hr by SRB assay; settings: SF-539, 48 h, read-out: pTGI (converted)
MCF7 = assay: Cytotoxicity against Homo sapiens (human) MCF7 cells at 10^-4 to 10^-8 M after 48 hr by SRB assay; settings: MCF7, 48 h, read-out: pTGI (converted)
Hs-578T = assay: Cytotoxicity against Homo sapiens (human) Hs578T cells at 10^-4 to 10^-8 M after 48 hr by SRB assay; settings: read-out: pTGI (converted)
ACHN [5] = assay: Cytotoxicity against Homo sapiens (human) ACHN cells at 10^-4 to 10^-8 M after 48 hr by SRB assay; settings: read-out: pTGI (converted)
SNB-75 [6] = assay: Cytotoxicity against Homo sapiens (human) SNB75 cells at 10^-4 to 10^-8 M after 48 hr by SRB assay; settings: SNB-75, 48 h, read-out: pTGI (converted)
NCI-H322M = assay: Cytotoxicity against Homo sapiens (human) NCI-H322M cells after 48 hr by SRB assay
M14 = assay: Cytotoxicity against Homo sapiens (human) M14 cells after 48 hr by SRB assay
MDA-MB-231 = assay: Cytotoxicity against Homo sapiens (human) MDA-MB-231 cells at 10^-4 to 10^-8 M after 48 hr by SRB assay; settings: MDA-MB-231, 48 h, read-out: pTGI (converted)
T47D = assay: Cytotoxicity against Homo sapiens (human) T47D cells at 10^-4 to 10^-8 M after 48 hr by SRB assay; settings: read-out: pTGI (converted)
PC-3 = assay: Cytotoxicity against Homo sapiens (human) PC3 cells at 10^-4 to 10^-8 M after 48 hr by SRB assay; settings: PC-3, 48 h, read-out: pTGI (converted)
OVCAR-3 = assay: Cytotoxicity against Homo sapiens (human) OVCAR3 cells at 10^-4 to 10^-8 M after 48 hr by SRB assay; settings: OVCAR-3, 48 h, read-out: pTGI (converted)
[7] = Cytotoxicity against Homo sapiens (human) NCI-ADR-RES cells at 10^-4 to 10^-8 M after 48 hr by SRB assay; settings: read-out: pTGI (converted)
HCT-116 = assay: Cytotoxicity against Homo sapiens (human) HCT116 cells at 10^-4 to 10^-8 M after 48 hr by SRB assay; settings: HCT-116, 48 h, read-out: pTGI (converted)
SNB-75 [8] = assay: Cytotoxicity against Homo sapiens (human) SNB75 cells after 48 hr by SRB assay
UACC-62 = assay: Cytotoxicity against Homo sapiens (human) UACC62 cells at 10^-4 to 10^-8 M after 48 hr by SRB assay; settings: UACC-62, 48 h, read-out: pTGI (converted)
LOX IMVI = assay: Cytotoxicity against Homo sapiens (human) LOXIMVI cells after 48 hr by SRB assay
RPMI-8226 = assay: Cytotoxicity against Homo sapiens (human) RPMI8226 cells at 10^-4 to 10^-8 M after 48 hr by SRB assay; settings: RPMI-8226, 48 h, read-out: pTGI (converted)
COLO 205 = assay: Cytotoxicity against Homo sapiens (human) COLO205 cells after 48 hr by SRB assay
HOP-92 = assay: Cytotoxicity against Homo sapiens (human) HOP92 cells at 10^-4 to 10^-8 M after 48 hr by SRB assay; settings: HOP-92, 48 h, read-out: pTGI (converted)
EKVX = assay: Cytotoxicity against Homo sapiens (human) EKVX cells at 10^-4 to 10^-8 M after 48 hr by SRB assay; settings: read-out: pTGI (converted)
UACC-257 = assay: Cytotoxicity against Homo sapiens (human) UACC257 cells at 10^-4 to 10^-8 M after 48 hr by SRB assay; settings: UACC-257, 48 h, read-out: pTGI (converted)
SF-539 [9] = assay: Cytotoxicity against Homo sapiens (human) SF539 cells after 48 hr by SRB assay
SK-MEL-2 = assay: Cytotoxicity against Homo sapiens (human) SK-MEL-2 cells at 10^-4 to 10^-8 M after 48 hr by SRB assay; settings: SK-MEL-2, 48 h, read-out: pTGI (converted)
SK-OV-3 = assay: Cytotoxicity against Homo sapiens (human) SKOV3 cells at 10^-4 to 10^-8 M after 48 hr by SRB assay; settings: SK-OV-3, 48 h, read-out: pTGI (converted)
SF-295 = assay: Cytotoxicity against Homo sapiens (human) SF295 cells at 10^-4 to 10^-8 M after 48 hr by SRB assay; settings: SF-295, 48 h, read-out: pTGI (converted)
SW-620 = assay: Cytotoxicity against Homo sapiens (human) SW620 cells at 10^-4 to 10^-8 M after 48 hr by SRB assay; settings: SW-620, 48 h, read-out: pTGI (converted)
U-251 [10] = assay: Cytotoxicity against Homo sapiens (human) U251 cells at 10^-4 to 10^-8 M after 48 hr by SRB assay; settings: U-251, 48 h, read-out: pTGI (converted)
BT-549 = assay: Cytotoxicity against Homo sapiens (human) BT549 cells at 10^-4 to 10^-8 M after 48 hr by SRB assay; settings: BT-549, 48 h, read-out: pTGI (converted)
KM12 = assay: Cytotoxicity against Homo sapiens (human) KM12 cells at 10^-4 to 10^-8 M after 48 hr by SRB assay; settings: KM12, 48 h, read-out: pTGI (converted)
DU-145 = assay: Cytotoxicity against Homo sapiens (human) DU145 cells after 48 hr by SRB assay
[11] = Homo sapiens, NCI/ADR-RES, 48 h

SMILES	TGI (OVCAR-4) [µM]	TGI (HT-29) [µM]	TGI (CCRF-CEM) [µM]	TGI (SF-539 [4]) [µM]	TGI (MCF7) [µM]	TGI (Hs-578T) [µM]	TGI (ACHN [5]) [µM]	TGI (SNB-75 [6]) [µM]	TGI (MDA-MB-231) [µM]	TGI (T47D) [µM]	TGI (PC-3) [µM]	TGI (OVCAR-3) [µM]	TGI [7] [µM]	TGI (HCT-116) [µM]	TGI (UACC-62) [µM]	TGI (RPMI-8226) [µM]	GI50 (COLO 205; Homo sapiens, COLO 205, 48 h) [µM]	TGI (HOP-92) [µM]	TGI (EKVX) [µM]	TGI (UACC-257) [µM]	further results
COC(=O)[C@]12CCC(C)(C)C[C@H]1C1=CC[C@@H]3[C@@]4(C)CC/C(=N\O)C(C)(C)[C@@H]4CC[C@@]3(C)[C@]1(C)CC2	> 100	79.4	81.3	41.7	40.7	66.1	41.7	38.9	40.7	72.4	44.7	35.5	> 100	56.2	56.2	> 100	22.4	39.8	72.4	> 100	GI50 (U-251 [1]; Homo sapiens, U-251, 48 h): 19.1 µM; GI50 (ACHN [2]; Homo sapiens, ACHN, 48 h): 20.9 µM; GI50 (NCI-H226; Homo sapiens, NCI-H226, 48 h): 27.5 µM; GI50 [3, 11]: 37.2 µM; GI50 (NCI-H322M; Homo sapiens, NCI-H322M, 48 h): 72.4 µM; GI50 (M14; Homo sapiens, M14, 48 h): 23.4 µM; GI50 (SNB-75 [8]; Homo sapiens, SNB-75, 48 h): 18.2 µM; GI50 (LOX IMVI; Homo sapiens, LOX IMVI, 48 h): 19.5 µM; GI50 (SF-539 [9]; Homo sapiens, SF-539, 48 h): 20.9 µM; TGI (SK-MEL-2): > 100 µM; TGI (SK-OV-3): > 100 µM; TGI (SF-295): 37.2 µM; TGI (SW-620): 40.7 µM; TGI (U-251 [10]): 33.9 µM; TGI (BT-549): > 100 µM; TGI (KM12): > 100 µM; GI50 (DU-145; Homo sapiens, DU-145, 48 h): 20.4 µM
CC1(C)CC[C@@]23CC[C@]4(C)[C@@](OC2=O)([C@@H]3C1)[C@@H](Br)C[C@@H]1[C@@]2(C)CC/C(=N\O)C(C)(C)[C@@H]2CC[C@]14C	> 100	> 100	> 100	> 100	60.3	24.5	> 100	60.3	47.9	74.1	> 100	49	> 100	> 100	> 100	> 100	91.2	46.8	> 100	> 100	GI50 (U-251 [1]; Homo sapiens, U-251, 48 h): 22.4 µM; GI50 (ACHN [2]; Homo sapiens, ACHN, 48 h): 53.7 µM; GI50 (NCI-H226; Homo sapiens, NCI-H226, 48 h): 28.2 µM; GI50 [3, 11]: 26.9 µM; GI50 (NCI-H322M; Homo sapiens, NCI-H322M, 48 h): 20 µM; GI50 (M14; Homo sapiens, M14, 48 h): 9.12 µM; GI50 (SNB-75 [8]; Homo sapiens, SNB-75, 48 h): 20.4 µM; GI50 (LOX IMVI; Homo sapiens, LOX IMVI, 48 h): 10 µM; GI50 (SF-539 [9]; Homo sapiens, SF-539, 48 h): 20 µM; TGI (SK-MEL-2): > 100 µM; TGI (SK-OV-3): > 100 µM; TGI (SF-295): 36.3 µM; TGI (SW-620): > 100 µM; TGI (U-251 [10]): > 100 µM; TGI (BT-549): 69.2 µM; TGI (KM12): > 100 µM; GI50 (DU-145; Homo sapiens, DU-145, 48 h): 14.1 µM
COC(=O)[C@]12CCC(C)(C)C[C@H]1C1=CC[C@@H]3[C@@]4(C)CC/C(=N\OC(=O)/C=C5/SC(=O)NC5=O)C(C)(C)[C@@H]4CC[C@@]3(C)[C@]1(C)CC2	6.92	5.13	7.76	3.63	10.7	6.76	3.39	22.9	7.59	18.6	14.1	3.47	22.9	3.39	10.2	6.03	2.63	4.68	22.4	24.5	GI50 (U-251 [1]): 6.76 µM and 1.78 µM; GI50 (ACHN [2]): 1.74 µM and 6.61 µM; GI50 (NCI-H226): ≥ 100 µM and 12.3 µM; GI50 [3]: 61.7 µM and 7.59 µM; GI50 (NCI-H322M): 58.9 µM and 18.2 µM; GI50 (M14): ≥ 20 µM; GI50 (SNB-75 [8]): 49 µM and 10.7 µM; GI50 (LOX IMVI): 6.61 µM and 1.48 µM; GI50 (COLO 205): 3.47 µM; GI50 (SF-539 [9]): 7.59 µM and 1.78 µM; TGI (SK-MEL-2): 17.8 µM; TGI (SK-OV-3): 34.7 µM; TGI (SF-295): 20.9 µM; TGI (SW-620): 3.89 µM; TGI (U-251 [10]): 3.39 µM; TGI (BT-549): 9.12 µM; TGI (KM12): 12.6 µM; GI50 (DU-145): 42.7 µM and 5.13 µM
